Data published in article PMC9820303, “^αN-Acetyl β-Endorphin Is an Endogenous Ligand of σ1Rs That Regulates Mu-Opioid Receptor Signaling by Exchanging G Proteins for σ2Rs in σ1R Oligomers” (International Journal of Molecular Sciences, 2022).

How the values were obtained:
[1] = biological target: σ1R-σ2R (Mus musculus, UniProt O55242); assay: σ1R/σ2R coprecipitation from CHO cells cotransfected with cMyc-σ1R and HA-σ2R; assay type: cell-based, Chinese hamster ovary (CHO) cells; set-up: Full-length sigma receptors were subcloned in frame; expressed in transfected cells; host or cells: CHO cells; settings: peptides 1 nM, PRE084, S1RA and BD1047 100 nM; 30 min in serum-free medium
Experimental: Effect of β-End 1–31 and ^αN-acetyl derivative. (A) Single-wavelength and merged images of CHO cells cotransfected with cMyc-σ1R and HA-σ2R. The cells were fixed 48 h after transfection and analyzed by confocal laser scanning microscopy. Transient expression of proteins within the transfected cells was detected with anti-cMyc (green) and anti-HA (red) antibodies (original magnification 10×). […] Scale bar: 30 µm. (B) Nuclei stained with DAPI (blue). (C–F) Single-wavelength and merged images are enlargements of individual cells. Scale bar: 5 µm. Lower panels: (G) Immunoprecipitation (IP) of tagged sigma receptor types from cotransfected CHO cells. […] Representative blots are shown.
CHO cells were cultured in modified Eagle’s medium/nutrient mixture F-12 (DMEM/F12) supplemented with GlutaMax (#31331028, ThermoFisher, Spain), 10% foetal bovine serum (#10500064, ThermoFisher), 100 IU/mL penicillin and 100 μg/mL streptomycin (#15140148, ThermoFisher) at 37 °C in a humidified 5% CO2 incubator as described previously. Full-length sigma receptors were subcloned in frame into the pSF-CMV-Puro-NH2-CMyc N-terminal tag (σ1R, #OGS3214, Merck-Sigma) and pSF-CMV-Puro-NH2-HA N-terminal tag (σ2R, #OGS1500, Merck-Sigma) mammalian plasmids using standard cloning strategies. CHO cells were seeded on 12-well plates at a concentration of 0.35 × 10^6 cells per well, grown in Opti-MEM™ I Reduced Serum Medium (#31985070, ThermoFisher) to 70–80% confluence, transfected using Lipofectamine 2000 (#11668030, Invitrogen) and incubated for 24 h prior to testing for transgene expression. For all experiments, the culture medium was replaced with serum-free medium before the addition of sigma ligands and incubated for 30 min. Cells were then harvested and cellular extracts were prepared for immunoprecipitation analysis. Receptors were detected by Western blot analysis using an antibody that recognizes either tag: Myc-tag (#MA1 21316 BTIN, Invitrogen), HA-tag (#26183-BTIN, Invitrogen).

[2] = test system: NMDAR overactivation seizures in CD1 mice; assay: NMDA-induced seizures (1 nmol NMDA icv); assay type: in vivo, mouse; settings: for effect on behavioral signs evoked by NMDA: 8 mice
Experimental: (§1) Figure 1 ^αN-acetyl β-End 1–31 reduced ischemic brain damage and diminished seizures induced by NMDAR overactivation. Implication of σ1Rs. (A) ^αN-acetyl β-End 1–31 administration diminished ischemic brain damage in wild-type but not σ1R^−/− mice. Upper panel: representative 2,3,5-triphenyltetrazolium chloride (TTC)-stained brain section images obtained from saline- and drug-treated mice (3 nmol, 1 h after surgery) 48 h after pMCAO. White indicates infarction; red staining indicates normal tissue. Lower panel: the bar graphs quantitatively compare the infarct volume based on TTC staining from wild-type mice treated with saline, β-End 1–31 and the σ1R agonist PRE084 (white bars). The reducing effect of ^αN-acetyl β-End 1–31 was counteracted by β-End 1–31 and PRE084 (gray bars). In σ1R^−/− mice, the positive effect of ^αN-acetyl β-End 1–31 was not observed. […] Effects of PPCC, β-End 1–31 and ^αN-acetyl β-End 1–31 on seizures induced by NMDA in wild-type and σ1R^−/− mice. The mice received icv 1 nmol of the NMDAR agonist NMDA 30 min after the other drugs (3 nmol) and were then immediately evaluated. […] ANOVA followed by the Holm–Sidak multiple comparisons test, p < 0.05, 1-β > 0.80.
Seizures were induced by injection of NMDA (1 nmol/mouse icv, in a volume of 4 μL sterile saline) as described by others. […] The seizure activity consisted of a mild myoclonic phase (immobility, mouth and facial movements, tail extension, circling), rearing (violent movements of the whole body, rearing), wild running (episodes of running with explosive jumps), clonic convulsions (characterized by rigidity of the whole body, including limb flexion/extension), followed by continuous/repetitive seizure activity (tonic seizures) and, in approximately 15–20% of the animals, death. The episode typically began a few seconds after injection and evolved to its maximal intensity in less than 1 min.

[3] = test system: pMCAO in CD1 mice (wild-type and σ1R−/−); assay: Permanent unilateral middle cerebral artery occlusion (pMCAO), infarct size by TTC staining; assay type: in vivo, mouse
Experimental: as §1
Focal cerebral ischemia was induced via pMCAO, as described previously. Briefly, mice were anesthetized and a vertical skin incision was made between the left eye and ear under a dissection microscope. After drilling a small hole in the cranium at the level of the distal portion of the middle cerebral artery, the artery was occluded by cauterization. Flow obstruction was visually verified. Animals showing subdural haemorrhages or signs of incorrect surgery were immediately excluded from the study (<5% in each group). The mice were returned to their cages after surgery, kept at room temperature, and allowed food and water ad libitum. Strong lesion reproducibility was observed. […] The investigator performing the pMCAO surgery was blinded to the treatment group. To determine the infarct size 48 h after surgery, animals were euthanized and their brains were removed, after which six 1 mm thick coronal brain slices (Brain Matrix, WPI, UK) were obtained. The sections were stained with 2,3,5-triphenyltetrazolium chloride (1% TTC, Merck-Sigma). Samples were taken from each side of all brain sections with a digital camera (Nikon Coolpix 990, Tokyo, Japan), and the extent of unstained infarct area (expressed in mm^2) was integrated from the total area as an orthogonal projection.

[4] = test system: MOR; assay: Coprecipitation of G proteins, σ2Rs and NMDAR NR1 C1 with PAG MORs after icv injection; assay type: in vivo, mouse; settings: 60 min post-treatment; for effect on association of PAG MOR with G proteins, σ2Rs and NR1 C1: icv: β-End 1–31 5 pmol, ^αN-acetyl β-End 1–31 5 pmol, S1RA 3 nmol, n = 3
Description: The data from σ2R^−/− solubilized cortical tissue were referred to the wild-type control (arbitrary value of 1). […] For each Gα subunit and the σ1R, the immunosignals in the absence of the acetylated peptide were the controls (C, value of 1). […] (D) Coprecipitation of G proteins with MORs in CD1 wild-type and σ2R^−/− mice. MORs were immunoprecipitated (IP) from mouse SBM. Coprecipitated proteins were detached from MORs and analyzed by Western blotting with antibodies directed to Gαi2, Gαo, Gαz and MOR proteins. (E) Effect of in vivo icv injection of β-End 1–31, ^αN-acetyl β-End 1–31 and S1RA on the association of PAG MORs with G proteins, σ2Rs and NMDAR NR1 C1 subunits. β-End 1–31 (5 pmol), ^αN-acetyl β-End 1–31 (5 pmol) and S1RA (3 nmol and 10 nmol) were icv-injected, and the mice were sacrificed 60 min post-treatment to obtain the PAG synaptosomal fraction. The MORs were immunoprecipitated from the solubilized membrane preparations, and the coprecipitated target proteins were analyzed by Western blotting. […] Representative blots are shown. The immunosignal provided by the light chain of the affinity-purified anti MOR IgGs was used as SDS-PAGE loading control. […] Data were analyzed by pairwise Holm–Sidak multiple comparison tests following ANOVA: p < 0.05, 1-β > 0.80.
In immunoprecipitation studies, the cerebral cortices or periaqueductal grey matter (PAG) from 4–6 mice are typically pooled, as described previously [89]. […] The software automatically calculates the optimal exposure time for each of the areas specified to provide the strongest possible signal for accurate quantification of the sample. Protein immunosignals were measured using the area of the strongest signal for each group of samples studied (average optical density of the pixels within the object area/mm^2; AlphaEase FC software); the grey values of the means were then normalized within the 8 bit/256 grey levels [(256 − computed value)/computed value].

[5] = 3 nmol icv 30 min before 1 nmol NMDA icv, wild-type mice

σ1R-σ2R, sequence (O55242 whole entry): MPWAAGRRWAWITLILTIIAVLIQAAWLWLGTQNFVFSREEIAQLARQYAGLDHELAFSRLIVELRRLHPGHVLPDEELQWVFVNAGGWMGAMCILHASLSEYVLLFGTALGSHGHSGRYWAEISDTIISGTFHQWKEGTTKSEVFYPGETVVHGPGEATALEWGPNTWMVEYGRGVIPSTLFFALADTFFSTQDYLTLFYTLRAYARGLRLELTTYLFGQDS
MOR, sequence (P42866 whole entry): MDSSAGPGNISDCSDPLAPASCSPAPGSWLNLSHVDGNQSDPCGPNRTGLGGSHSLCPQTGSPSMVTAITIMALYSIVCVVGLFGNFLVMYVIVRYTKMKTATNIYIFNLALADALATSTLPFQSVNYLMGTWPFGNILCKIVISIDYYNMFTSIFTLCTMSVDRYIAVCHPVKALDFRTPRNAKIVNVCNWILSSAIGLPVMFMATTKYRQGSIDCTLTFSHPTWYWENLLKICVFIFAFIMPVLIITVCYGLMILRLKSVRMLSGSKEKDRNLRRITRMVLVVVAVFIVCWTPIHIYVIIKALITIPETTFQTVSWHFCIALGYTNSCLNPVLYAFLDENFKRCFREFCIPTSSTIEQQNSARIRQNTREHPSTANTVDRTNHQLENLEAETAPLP

With `Br.Br.CN(C)CCN(C)CCc1ccc(Cl)c(Cl)c1` [BD1047, N′-[2-(3,4-dichlorophenyl)ethyl]-N,N,N′-trimethylethane-1,2-diamine;dihydrobromide, reference compound] the “effect on σ1R-σ2R association in CHO cells” value (shortened to “effect on σ1R-σ2R association”) [1] was “preserved these protein complexes”.
In the case of `COC(=O)[C@]1(c2ccc(C)cc2)C[C@@H]1CN1CCC(O)(c2ccccc2)CC1` [PPCC, (1R,2S/1S,2R)-2-[4-hydroxy-4-phenylpiperidin-1-yl)methyl]-1-(4-methylphenyl) cyclopropanecarboxylate, reference compound], the “effect on behavioral signs evoked by NMDA” value [2, 5] is reported as “did not significantly alter the behavioral effects” and the “effect on the anticonvulsant action of ^αN-acetyl β-End 1–31” value ([2]; 3 nmol icv with ^αN-acetyl β-End 1–31, wild-type mice) is reported as “prevented ^αN-acetyl β-End 1–31 from alleviating these signs”.
In the case of `Cl.O=C(OCCN1CCOCC1)C1(c2ccccc2)CCCCC1` [PRE084, 2-(4-morpholinethyl)-1-phenylcyclohexanecarboxylate hydrochloride, reference compound], the “effect on the neuroprotection provided by ^αN-acetyl β-End 1–31” value ([3]; given with ^αN-acetyl β-End 1–31 (3 nmol icv), wild-type mice) is reported as “prevented the neuroprotection”, the “effect on infarct volume, given alone” value ([3]; icv 60 min postsurgery (3 nmol), 48 h after pMCAO, wild-type mice) is reported as “did not alter the extent of infarct volume” and the “effect on σ1R-σ2R association” value [1] is reported as “strongly decreased the σ1R-σ2R association”.
With `Cc1cc(OCCN2CCOCC2)nn1-c1ccc2ccccc2c1` [S1RA] the “effect on association of PAG MOR with G proteins and σ2Rs, 10 nmol” value ([4]; 10 nmol icv) was “increased MOR association with Gi2/o and σ2Rs”, the “effect on association of PAG MOR with G proteins, σ2Rs and NR1 C1” value [4] was “slightly reproduced” and the “effect on σ1R-σ2R association” value [1] was “preserved these protein complexes”.
“^αN-acetyl β-End 1–31: β-End 1–31 acetylated at N terminal Y1, α position” was tested, and the “effect on clonic convulsions and tonic seizures” value [2, 5] was “only a tendency to diminish clonic convulsions and tonic seizures”, the “effect on behavioral signs evoked by NMDA” value [2, 5] was “partially protected the mice from hypermobility and convulsive rearing” and the “anticonvulsant effects in σ1R−/− mice” value ([2]; σ1R−/− mice, 3 nmol icv) was “absent”. For the same compound, the “effect on association of PAG MOR with G proteins, σ2Rs and NR1 C1” value [4] was “slightly reproduced”, the infarct volume ([3]; 3 nmol icv 60 min postsurgery, 48 h after pMCAO, wild-type mice, mean ± SD, 5 to 8 mice, SD) was 1.2 ± 0.9 % of the total brain volume and the “reduction in the infarct size” value ([3]; 3 nmol icv 60 min postsurgery, 48 h after pMCAO, wild-type mice, untreated infarct 5.4 ± 1.2% of total brain volume) was about 80%. For the same compound, the “protective effect on pMCAO-produced ischemia in σ1R−/− mice” value ([3]; σ1R−/− mice, 3 nmol icv) was “did not exhibit protective effects” and the “effect on σ1R-σ2R association” value [1] was “preserved these protein complexes”.
